The term IC50 denotes the midpoint of a concentration-inhibition curve.

The subject of experiment [1] is MIA PaCa-2 human pancreatic cancer xenograft. Briefly: Tumor growth inhibition in subchronic xenograft model. The experiment is classed as in vivo. Conditions: MIA PaCa-2 xenograft in nude mice, 50 mg/kg b.i.d. The method, then: In vivo efficacy of compound 87 was evaluated in MIA PaCa-2 human pancreatic cancer xenograft model in nude mice.
20×10^6 MIA PaCa-2 cells were injected subcutaneously in the presence of PBS and matrigel in 1:1 ratio in nude mice. The tumor-bearing mice were randomized once the tumors reached an average volume of approximately 154-159 mm^3 (Tumor volume range 107-248 mm^3). The mice were divided into the following groups (n=7-8/group): Vehicle control and compound 87 (50 mg/kg; b.i.d.).

Another experiment deals with pERK in DLD1 cells. Briefly: ERK phosphorylation assay after EGF stimulation. Particulars: Homo sapiens, DLD-1, compound 2 h, 200 ng/ml hEGF 5 minutes, alphascreen pERK, read-out: ERK phosphorylation inhibition IC50. Type of experiment: cell-based. Put shortly: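 DLD1 cells pretreated 2 h with compound, then stimulated 5 minutes with 200 ng/ml hEGF. Lysates assayed for ERK1/2 p-T202/Y204 by AlphaScreen SureFire, read after 2 h at 25-28° C.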
(In general: Alpha assays give light when donor and acceptor beads are brought close together.)

In experiment [2] the target is T1, hSOS1 mediated nucleotide exchange on hKRASG12C (Homo sapiens, UniProt Q07889).
T1 sequence (Q07889 564-1049): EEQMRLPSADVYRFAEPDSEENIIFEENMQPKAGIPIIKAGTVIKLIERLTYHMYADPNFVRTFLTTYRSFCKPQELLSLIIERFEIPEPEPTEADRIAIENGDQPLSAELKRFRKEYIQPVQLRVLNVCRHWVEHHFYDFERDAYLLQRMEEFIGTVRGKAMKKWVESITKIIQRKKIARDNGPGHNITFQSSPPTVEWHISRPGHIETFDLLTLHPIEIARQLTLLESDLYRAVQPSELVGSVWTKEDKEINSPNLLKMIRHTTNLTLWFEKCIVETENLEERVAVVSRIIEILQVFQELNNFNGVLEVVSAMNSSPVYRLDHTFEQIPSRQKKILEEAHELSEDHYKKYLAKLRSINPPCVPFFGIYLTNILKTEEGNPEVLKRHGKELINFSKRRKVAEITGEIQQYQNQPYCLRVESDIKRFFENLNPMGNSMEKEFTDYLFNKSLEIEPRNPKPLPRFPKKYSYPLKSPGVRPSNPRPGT
Briefly: biochemical.
Description: Example-127: Guanine Nucleotide Exchange Assay (GNEA)
GNEA assay was conducted to evaluate the effects of compounds on the nucleotide exchange on hKRASG12C mediated by hSOS1. Inhibitory effect of compounds on HIS-hSOS1, 564-1049aa mediated GTP loading onto GST-hKRASG12C, 1-169aa both expressed and purified in-house was assessed using HTRF detection technology in biochemical assay. Compounds were pre-incubated with hSOS1 working solution containing 10-50 nM hSOS1 and 200 nM EDA-GTP-DY-647P1 (Custom manufactured, Jena Biosciences) per well of a 384 well plate (Perkin Elmer, Cat #6007290) for 10 min at 20° C. in the assay buffer containing 10 mM HEPES, pH 7.4, 150 mM NaCl, 5 mM MgCl2, 1 mM DTT, 0.05% BSA fraction V and 0.0025% Igepal. Reaction was initiated by adding working solution of hKRASG12C containing 25-125 nM hKRASG12C and MAb Anti-GST-Tb (#61GSTTLA, Cisbio BioAssays) in assay buffer. Total assay volume was 15 μL. Reaction was continued for 30-60 min at 20° C. HTRF signal was recorded in PHERAStar microplate reader. Ratio of signal obtained at 665 nm and 620 nm was used to compute the percent inhibition of compound as follows.
Where, Positive control=hSOS1+EDA-GTP-DY-647P1+hKRASG12C+MAb Anti-GST-Tb Negative control=EDA-GTP-DY-647P1+hKRASG12C+MAb Anti-GST-Tb

The test system of another experiment is DLD-1 cell line. Briefly: Colony formation assay (single agent activity). Conditions: Homo sapiens, 168 h, 7 days of drug treatment, crystal violet. The experiment is classed as cell-based. As for the experimental part: Example-129: Colony Formation Assay Protocol (Single Agent Activity)
DLD-1/MIA PaCa-2 cells were seeded at a density of 300/500 cells per well respectively in 48 well tissue culture plate and cells were allowed to settle overnight (16 to 20 h). On the following day, cells were treated with different concentrations of test or reference compound and the assay plates were incubated under standard cell culture conditions (37° C. with 5% CO2). After 7 days of drug treatment, media was removed from each well and plates were washed with PBS. Colonies were stained with crystal violet solution for 2-5 min. Plate was then washed carefully under tap water and air dried. For quantitation, 200 μL destaining solution containing 10% Glacial acetic acid was added to each well and crystal violet from the colonies was allowed to solubilize for 20-30 min on plate shaker. After solubilization, absorbance of the extracted stain was recorded in BioTek Synergy Neo II plate reader at 590 nm. Absorbance values were directly proportional to colony growth.

The next experiment has as its target T2, hSOS1 and hKRASG12C (Homo sapiens, UniProt Q07889).
T2 sequence (Q07889 564-1049): T1 sequence (Q07889 564-1049)
The experiment in a line: biochemical.

For the compound `Cc1nc(N[C@H](C)c2cc(N)cc(C(F)(F)F)c2)c2cc(-c3ccc(=O)n(C)c3)c3c(c2n1)CCC3` [Compound 87, (R)-5-(4-((1-(3-amino-5-(trifluoromethyl)phenyl)ethyl)amino)-2-methyl-8,9-dihydro-7H-cyclopenta[h]quinazolin-6-yl)-1-methylpyridin-2(1H)-one], the “% tumor growth inhibition” value in experiment [1] is listed as “more than 70%”. In addition, the IC50 in the experiment with pERK in DLD1 cells was 1 to 200 nM; in experiment [2], 31 to 70 nM; with DLD-1 cell line, 500 to 6000 nM; against hSOS1 and hKRASG12C, 1 to 10 nM.
`Cc1nc(N[C@H](C)c2cccc(C(F)(F)[C@](C)(O)CO)c2F)c2cc(N3CCOCC3)c3c(c2n1)CCC3` (racemic) [Compound 82a, (R/S)-3,3-difluoro-3-(2-fluoro-3-((R/S)-1-((2-methyl-6-morpholino-8,9-dihydro-7H-cyclopenta[h]quinazolin-4-yl)amino)ethyl)phenyl)-2-methylpropane-1,2-diol]: the half-inhibitory concentration (IC50) in the experiment with pERK in DLD1 cells is 1 to 200 nM; in experiment [2], 1 to 30 nM; with DLD-1 cell line, 500 to 6000 nM; on hSOS1 and hKRASG12C, 1 to 10 nM.

The record behind these values is patent US12435066B2, “Substituted tricyclic compounds” (LUPIN LIMITED, priority 2019, dated 2025).
